Measurements taken from PubChem BioAssay (NCI).
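Method: 48-hour compound exposure of cells in 96-well plates, five concentrations, linear interpolation of endpoints. The concentration for 50% growth inhibition is given as GI50. The concentration for full growth arrest is given as TGI.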

Assays:
Assay in all cases: growth of human tumour cells (NCI), 48 h
[1] = tested on: SK-MEL-2 melanoma
[2] = tested on: MOLT-4 leukemia
[3] = tested on: U251 CNS
[4] = tested on: TK-10 renal
[5] = tested on: NCI-H522 lung
[6] = tested on: SF-539 CNS
[7] = tested on: NCI/ADR-RES ovarian
[8] = tested on: CAKI-1 renal
[9] = tested on: MALME-3M melanoma
[10] = tested on: OVCAR-4 ovarian
[11] = tested on: PC-3 prostate
[12] = tested on: A549 NSCLC
[13] = tested on: HCT-15 colon
[14] = tested on: MCF7 breast
[15] = tested on: UACC-257 melanoma
[16] = tested on: SNB-75 CNS
[17] = tested on: 786-0 renal
[18] = tested on: HCT-116 colon
[19] = tested on: UO-31 renal
[20] = tested on: RXF 393 renal
[21] = tested on: SK-MEL-5 melanoma
[22] = tested on: NCI-H226 lung
[23] = tested on: KM12 colon
[24] = tested on: SF-268 CNS
[25] = tested on: LOX IMVI melanoma
[26] = tested on: HT29 colon
[27] = tested on: NCI-H23 lung

## N#C/C(=C\c1ccc2c(c1)OCO2)n1nnc2ccccc21
[1]
  GI50: 1230 nM
  TGI: 26.9 µM
[2]
  GI50: 2420 nM
  TGI: > 100 µM
[3]
  GI50: 1540 nM
  TGI: 21.1 µM
[4]
  GI50: 2200 nM
  TGI: 8.55 µM
[5]
  GI50: 270 nM
  TGI: 15.2 µM
[6]
  GI50: 1480 nM
  TGI: 6.27 µM
[7]
  GI50: 405 nM
  TGI: 17.2 µM
[8]
  GI50: 518 nM
  TGI: 13.1 µM
[9]
  GI50: 1400 nM
  TGI: 23.4 µM
[10]
  GI50: 1660 nM
  TGI: 20.3 µM
[11]
  GI50: 1350 nM
  TGI: 24.3 µM
[12]
  GI50: 991 nM
  TGI: 48.1 µM
[13]
  GI50: 395 nM
  TGI: 13.8 µM
[14]
  GI50: 417 nM
  TGI: 14.1 µM
[15]
  GI50: 6.68 µM
  TGI: 62.4 µM
[16]
  GI50: 179 nM
  TGI: 1510 nM
[17]
  GI50: 2010 nM
  TGI: 12.9 µM
[18]
  GI50: 439 nM
  TGI: 17.4 µM
[19]
  GI50: 1760 nM
  TGI: 12.7 µM
[20]
  GI50: 986 nM
  TGI: 5.31 µM
[21]
  GI50: 1620 nM
  TGI: 12.6 µM
[22]
  GI50: 2210 nM
  TGI: 16 µM
[23]
  GI50: 797 nM
  TGI: > 100 µM
[24]
  GI50: 3.22 µM
  TGI: 20.5 µM
[25]
  GI50: 990 nM
  TGI: 25 µM
[26]
  GI50: 383 nM
  TGI: > 100 µM
[27]
  GI50: 3.6 µM
  TGI: 22.6 µM
